This experiment concerns the target T1, mouse GnRH receptor (Mus musculus, UniProt Q01776).
T1 construct: expressed in transfected cells; host or cells: 293 cells
T1 sequence (Q01776 1-327): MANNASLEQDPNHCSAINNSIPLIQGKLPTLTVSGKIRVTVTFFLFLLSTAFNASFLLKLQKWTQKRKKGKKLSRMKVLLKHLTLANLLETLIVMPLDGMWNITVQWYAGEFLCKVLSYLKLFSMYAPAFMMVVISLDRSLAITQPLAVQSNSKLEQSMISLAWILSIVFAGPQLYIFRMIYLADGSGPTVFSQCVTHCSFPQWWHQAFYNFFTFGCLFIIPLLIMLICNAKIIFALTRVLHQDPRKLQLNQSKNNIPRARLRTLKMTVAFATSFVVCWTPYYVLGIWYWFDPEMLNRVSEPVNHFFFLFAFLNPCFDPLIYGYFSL
In words: Radioligand binding, 125I-GnRH-A, 293 cells expressing mouse GnRH receptors. The conditions noted are these: 10 uM; read-out: % Inhib. @ 10 uM mGnRH. The method, then:
All compounds were diluted in 1% DMSO (final assay concentration) in binding assay buffer. […] Reactions were terminated by rapid filtration onto 96-well Packard GF/C filters soaked in 0.1% polyethyleneimine. Filters were washed three times with PBS buffer, dried and counted on a Packard Topcount by liquid scintillation counting.
Assay conditions were identical for assessing compound activities at other species. […] IC50 values for control peptides and test compounds were calculated utilizing GraphPad Prism™ software.
The reaction mixture was vortexed and incubated for 1 min at room temperature. After one min, the mixture was vortexed and allowed to incubate for an additional minute. 2 ml of 0.5 M acetic acid/1% BSA was added to the reaction tube and the mixture was added to a C18 Sep-Pak cartridge. The cartridge was washed with subsequent washes of 5 ml H2O and 5 ml 0.5M acetic acid and then eluted with 5×1 ml of 60% CH3CN/40% 0.5M acetic acid. The eluate was diluted with 3× volume of HPLC buffer A (0.1% TFA in H2O) and loaded onto a C18 column. […] The radioactive fractions (750 ed/fraction) are collected into clean polypropylene tubes containing 100 μl of 10% BSA. Fractions were assessed for biological activity by radioligand binding.
As to `Cc1cc2c(cc1Cc1ccc(C(=O)NCCCN(C)C)o1)C(C)(C)CCC2(C)C`, the inhibition at 10 µM was found to be 99%. With `Cc1cc2c(cc1Cc1ccc(C(=O)N3CCC[C@H]3CO)o1)C(C)(C)CCC2(C)C` the figure was 93%; with `Cc1cc2c(cc1Cc1ccc(C(=O)N3CCN(Cc4ccc5c(c4)OCO5)CC3)o1)C(C)(C)CCC2(C)C`, 66%. With `CCN1CCCC1CNC(=O)c1ccc(Cc2cc3c(cc2C)C(C)(C)CCC3(C)C)o1` (centres unmarked) the figure was 96%; with `Cc1cc2c(cc1Cc1ccc(C(=O)N3CCN(Cc4ccccc4)CC3)o1)C(C)(C)CCC2(C)C`, 83%; with `Cc1cc2c(cc1Cc1ccc(C(=O)N3CCN(CC(=O)NC(C)C)CC3)o1)C(C)(C)CCC2(C)C`, 63%. In the case of `C=CCN(C(=O)c1ccc(Cc2cc3c(cc2C)C(C)(C)CCC3(C)C)o1)C1CCCCC1`, the inhibition at 10 µM turned out to be 65%.

Take `Cc1cc2c(cc1Cc1ccc(C(=O)N3CCCC4CCCCC43)o1)C(C)(C)CCC2(C)C` (centres unmarked): the inhibition at 10 µM worked out at 94%.

`CCN(CC)C(=O)C1CCCN(C(=O)c2ccc(Cc3cc4c(cc3C)C(C)(C)CCC4(C)C)o2)C1` (centres unmarked): the inhibition at 10 µM is 21%. The same measure for `Cc1cc2c(cc1Cc1ccc(C(=O)N3CCCCC3CO)o1)C(C)(C)CCC2(C)C` (centres unmarked): 84%; for `Cc1cc2c(cc1Cc1ccc(C(=O)N3CCCCC3CCO)o1)C(C)(C)CCC2(C)C` (centres unmarked): 100%; for `Cc1cc2c(cc1Cc1ccc(C(=O)N3CCN(CCCO)CC3)o1)C(C)(C)CCC2(C)C`: 66%.

With `Cc1cc2c(cc1Cc1ccc(C(=O)N(CCCCO)Cc3ccccc3)o1)C(C)(C)CCC2(C)C`, the inhibition at 10 µM turned out to be 99%. On to `Cc1cc2c(cc1Cc1ccc(C(=O)N3Cc4ccccc4CC3C(=O)NCC(c3ccccc3)c3ccccc3)o1)C(C)(C)CCC2(C)C` (centres unmarked), for which the inhibition at 10 µM was determined as 9%. The same measure for `Cc1cc2c(cc1Cc1ccc(C(=O)N3CCN(C/C=C/c4ccccc4)CC3)o1)C(C)(C)CCC2(C)C`: 86%.

With `Cc1cc2c(cc1Cc1ccc(C(=O)N[C@H]3CC[C@@H](O)CC3)o1)C(C)(C)CCC2(C)C`, the inhibition at 10 µM is 82%. The same measure for `CC(=O)NC1CCN(C(=O)c2ccc(Cc3cc4c(cc3C)C(C)(C)CCC4(C)C)o2)C1` (centres unmarked): 63%. Turning to `Cc1cc2c(cc1Cc1ccc(C(=O)NCC(O)CO)o1)C(C)(C)CCC2(C)C` (centres unmarked), the inhibition at 10 µM amounted to 14%. The same measure for `CCN1CC(NC(=O)c2ccc(Cc3cc4c(cc3C)C(C)(C)CCC4(C)C)o2)CN1CC`: 91%.

With `CCCN(CC1CC1)C(=O)c1ccc(Cc2cc3c(cc2C)C(C)(C)CCC3(C)C)o1`, the inhibition at 10 µM stood at 96%. With `CCOC(=O)CN1CCN(C(=O)c2ccc(Cc3cc4c(cc3C)C(C)(C)CCC4(C)C)o2)CC1` the figure was 66%. The same measure for `Cc1cc2c(cc1Cc1ccc(C(=O)N(C)C3CCN(C)C3)o1)C(C)(C)CCC2(C)C` (centres unmarked): 89%; for `COc1ccc(N2CCN(C(=O)c3ccc(Cc4cc5c(cc4C)C(C)(C)CCC5(C)C)o3)CC2C)cc1` (centres unmarked): 73%.

`Cc1cc2c(cc1Cc1ccc(C(=O)N3CCCCC3C)o1)C(C)(C)CCC2(C)C` (centres unmarked): the inhibition at 10 µM was determined as 100%.

In the case of `Cc1cc2c(cc1Cc1ccc(C(=O)N3CCN(CCc4ccccc4)CC3)o1)C(C)(C)CCC2(C)C`, the inhibition at 10 µM amounted to 97%. `Cc1cc2c(cc1Cc1ccc(C(=O)N(Cc3cccnc3)Cc3cccc4ccccc34)o1)C(C)(C)CCC2(C)C`: the inhibition at 10 µM was 79%. With `Cc1cc2c(cc1Cc1ccc(C(=O)N(Cc3cccnc3)Cc3ccc(Cl)c(Cl)c3)o1)C(C)(C)CCC2(C)C` the figure was 79%; with `Cc1cc2c(cc1Cc1ccc(C(=O)N(Cc3cccnc3)Cc3ccoc3)o1)C(C)(C)CCC2(C)C`, 99%; with `Cc1cc2c(cc1Cc1ccc(C(=O)NC3CCCC3)o1)C(C)(C)CCC2(C)C`, 73%. For `Cc1cc2c(cc1Cc1ccc(C(=O)N(C)C3CCCCC3)o1)C(C)(C)CCC2(C)C`, the inhibition at 10 µM stood at 97%. With `CCCCC(CC)COCCCNC(=O)c1ccc(Cc2cc3c(cc2C)C(C)(C)CCC3(C)C)o1` (centres unmarked) the figure was 58%. In the case of `Cc1cc2c(cc1Cc1ccc(C(=O)N(CCO)CCO)o1)C(C)(C)CCC2(C)C`, the inhibition at 10 µM worked out at 34%.

Regarding `Cc1cc2c(cc1Cc1ccc(C(=O)N(Cc3ccccc3Cl)C3CCN(Cc4ccccc4)CC3)o1)C(C)(C)CCC2(C)C`, the inhibition at 10 µM was found to be 43%. With `Cc1cc2c(cc1Cc1ccc(C(=O)N3CCC[C@H]3C(N)=O)o1)C(C)(C)CCC2(C)C` the figure was 74%; with `CCCCCNC(=O)c1ccc(Cc2cc3c(cc2C)C(C)(C)CCC3(C)C)o1`, 91%. In the case of `CCC1CCCCN1C(=O)c1ccc(Cc2cc3c(cc2C)C(C)(C)CCC3(C)C)o1` (centres unmarked), the inhibition at 10 µM is 100%.

As for `Cc1cc2c(cc1Cc1ccc(C(=O)NCCN(C(C)C)C(C)C)o1)C(C)(C)CCC2(C)C`, the inhibition at 10 µM was determined as 102%.

For `Cc1ccc(CN(CCc2ccc(Cl)cc2Cl)C(=O)c2ccc(Cc3cc4c(cc3C)C(C)(C)CCC4(C)C)o2)cc1`, the inhibition at 10 µM came out at 23%. With `CCN(Cc1ccccc1F)C(=O)c1ccc(Cc2cc3c(cc2C)C(C)(C)CCC3(C)C)o1` the figure was 86%. The same measure for `Cc1ccc(N2CCN(C(=O)c3ccc(Cc4cc5c(cc4C)C(C)(C)CCC5(C)C)o3)CC2)cc1C`: 75%. With `Cc1cc2c(cc1Cc1ccc(C(=O)N(CCN3CCCC3)Cc3cccc(Oc4cccc(C(F)(F)F)c4)c3)o1)C(C)(C)CCC2(C)C` the figure was 99%; with `Cc1cc2c(cc1Cc1ccc(C(=O)N(Cc3cccc(Oc4cccc(C(F)(F)F)c4)c3)CC(C)(C)CN(C)C)o1)C(C)(C)CCC2(C)C`, 89%. With `Cc1cc2c(cc1Cc1ccc(C(=O)N(C)C3CCN(Cc4ccccc4)C3)o1)C(C)(C)CCC2(C)C` (centres unmarked), the inhibition at 10 µM came to 98%. `Cc1cc2c(cc1Cc1ccc(C(=O)NC(CO)C(C)(C)C)o1)C(C)(C)CCC2(C)C` (centres unmarked): the inhibition at 10 µM is 101%. Regarding `COc1ccc(CCN(CC(C)C)C(=O)c2ccc(Cc3cc4c(cc3C)C(C)(C)CCC4(C)C)o2)cc1OC`, the inhibition at 10 µM is 90%. Take `Cc1cc2c(cc1Cc1ccc(C(=O)N(Cc3ccncc3)Cc3ccc4c(c3)OCO4)o1)C(C)(C)CCC2(C)C`: the inhibition at 10 µM turned out to be 91%. With `COc1cc(CN(Cc2ccncc2)C(=O)c2ccc(Cc3cc4c(cc3C)C(C)(C)CCC4(C)C)o2)ccc1OCc1ccccc1` the figure was 64%; with `Cc1cc2c(cc1Cc1ccc(C(=O)N(Cc3cccnc3)CC(C)c3ccccc3)o1)C(C)(C)CCC2(C)C` (centres unmarked), 97%; with `Cc1cc2c(cc1Cc1ccc(C(=O)NC(CO)CO)o1)C(C)(C)CCC2(C)C`, 22%. The same measure for `Cc1cc2c(cc1Cc1ccc(C(=O)NCC[N+](C)(C)C)o1)C(C)(C)CCC2(C)C`: 49%. The same measure for `CCOC(=O)CC(C)NC(=O)c1ccc(Cc2cc3c(cc2C)C(C)(C)CCC3(C)C)o1` (centres unmarked): 88%; for `CCN(CC)CCN(CC)C(=O)c1ccc(Cc2cc3c(cc2C)C(C)(C)CCC3(C)C)o1`: 98%. Take `Cc1cc2c(cc1Cc1ccc(C(=O)NC3CCC(C)CC3)o1)C(C)(C)CCC2(C)C` (centres unmarked): the inhibition at 10 µM turned out to be 64%.

As for `CCOC(=O)CC(C)(NC(N)=O)NC(=O)c1ccc(Cc2cc3c(cc2C)C(C)(C)CCC3(C)C)o1` (centres unmarked), the inhibition at 10 µM turned out to be 25%. `Cc1cc2c(cc1Cc1ccc(C(=O)N(CCC#N)C3CCCC3)o1)C(C)(C)CCC2(C)C`: the inhibition at 10 µM came to 88%. The same measure for `Cc1cc2c(cc1Cc1ccc(C(=O)N[C@H](C)c3ccccc3)o1)C(C)(C)CCC2(C)C`: 72%. The same measure for `Cc1cc2c(cc1Cc1ccc(C(=O)N3CCC[C@@H]3C(=O)OCc3ccccc3)o1)C(C)(C)CCC2(C)C`: 86%; for `Cc1cc2c(cc1Cc1ccc(C(=O)N(C)CC(O)c3ccc(O)cc3)o1)C(C)(C)CCC2(C)C` (centres unmarked): 34%.

Consider `COc1ccccc1CN(CCC(c1ccccc1)c1ccccc1)C(=O)c1ccc(Cc2cc3c(cc2C)C(C)(C)CCC3(C)C)o1`, for which the inhibition at 10 µM came out at 21%.

Take `Cc1cc2c(cc1Cc1ccc(C(=O)N(CCC(c3ccccc3)c3ccccc3)Cc3ccc4c(c3)OCO4)o1)C(C)(C)CCC2(C)C`: the inhibition at 10 µM is 25%.

On to `Cc1cc2c(cc1Cc1ccc(C(=O)N(CCC(c3ccccc3)c3ccccc3)CC3CCCCC3)o1)C(C)(C)CCC2(C)C`, for which the inhibition at 10 µM was 31%. As for `Cc1cc2c(cc1Cc1ccc(C(=O)N(Cc3ccc(O)cc3)C3CCN(Cc4ccccc4)CC3)o1)C(C)(C)CCC2(C)C`, the inhibition at 10 µM stood at 28%.

With `COC(=O)C1SCCN1C(=O)c1ccc(Cc2cc3c(cc2C)C(C)(C)CCC3(C)C)o1` (centres unmarked), the inhibition at 10 µM amounted to 39%. The same measure for `Cc1cc2c(cc1Cc1ccc(C(=O)N[C@H](C)c3ccc([N+](=O)[O-])cc3)o1)C(C)(C)CCC2(C)C`: 44%; for `Cc1cc2c(cc1Cc1ccc(C(=O)NC(C)(C)CNC(=O)C(F)(F)F)o1)C(C)(C)CCC2(C)C`: 37%.

These data come from US7101878B1 (Agouron Pharmaceuticals, Inc., priority 1998, dated 2006).
